Laboratory results as given in publication PMC12388523, “Flavonoids and Sesquiterpene Lactones from Lychnophora ericoides (Arnica-Do-Cerrado) and Their In Vitro Effects on Multiple Myeloma and Acute Myeloid Leukemia” (Metabolites, 2025).

How the values were obtained:
Type in all cases: cell-based
HL-60 cells [1] = assay: Proliferation, [3H]-thymidine uptake, HL-60; settings: for mean percentage of proliferation ± SE: 72 h, relative to control
Procedure: (§1) Acute myeloid leukemia cell line HL-60 and multiple myeloma cell lines AMO-1 and KMS-12-PE were obtained from the German Collection of Microorganisms and Cell Cultures (DSMZ), Braunschweig, Germany, and non-tumorigenic stromal cell line HS-5 was acquired from the American Type Culture Collection (ATCC, Manassas, VA, USA). All cell lines were cultured in RPMI 1640 medium without phenol red (Pan Biotech, Aidenbach, Germany), supplemented with 2 mM glutamine, 100 U/mL penicillin, 100 µg/mL streptomycin (Sigma-Aldrich, St. Louis, MO, USA), and 10% fetal bovine serum (FBS Maximus, Catus Biotech GmbH, Tutzing, Germany) at 37 °C in a humidified atmosphere of 5% CO2/95% air. Cells were fed twice weekly. Logarithmically growing cells were resuspended at 1 × 10^5 cells/mL, plated in triplicate in round-bottom 96-well plates (100 µL per well; Falcon, Becton Dickinson, Franklin Lakes, NJ, USA), and incubated at 37 °C in 5% CO2/95% air for 2 h. Subsequently, the compounds were adjusted in the cell culture medium to reach the final concentrations in a total volume of 150 µL and incubated for an additional 72 h. Cell proliferation was assessed by [^3H]-thymidine uptake. Each well was exposed to 2 µCi [^3H]-thymidine (Hartmann Analytic, Braunschweig, Germany) during the final 12–16 h of incubation. Cells were harvested using a semi-automated device, and [^3H]-thymidine incorporation (expressed in counts per minute, cpm) was measured with a scintillation counter (MicroBeta TriLux, PerkinElmer, Waltham, MA, USA). Metabolic activity was assessed by resazurin staining. Resazurin (Carl Roth, Karlsruhe, Germany) was dissolved in distilled water at a concentration of 0.1 mg/mL, and 15 µL of this solution was added to each well, followed by a 2 h incubation at 37 °C. Relative fluorescence units (RFUs) were measured using a Synergy H1 plate reader equipped with a 560 nm excitation/590 nm emission filter set (BioTek; Agilent, Santa Clara, CA, USA). Proliferation and metabolic activity in the absence of compounds were defined as 100% (control), and the values for compound-treated samples were expressed as percentages relative to the control. Selectivity indices were calculated by dividing the IC50 value of each compound against HS-5 cells through the IC50 values against the investigated cell lines.
(§2) The Wilcoxon Rank Sum Test was used to analyze proliferation and metabolic activity in the absence and presence of varying compound concentrations (NCSS 2007 software, version 07.1.2, Kaysville, UT, USA). A p-value < 0.05 was considered statistically significant. IC50 values were calculated using GraphPad Prism 10.1.2. This software reports 95% confidence intervals instead of standard errors. […] Nonetheless, the figures clearly illustrate the IC50 values due to the narrow concentration range tested.

MOLM-13 cells [2] = assay: Proliferation, [3H]-thymidine uptake, MOLM-13; settings: for mean percentage of proliferation ± SE: 72 h, relative to control
Procedure: [The source words this procedure for another cell line and reports this cell line under the same test.] as §1, §2

AMO-1 cells [3] = assay: Proliferation, [3H]-thymidine uptake, AMO-1; settings: 72 h, relative to control
Procedure: as §1, §2

KMS-12-PE cells [4] = assay: Proliferation, [3H]-thymidine uptake, KMS-12-PE; settings: KMS-12 PE, 72 h, relative to control
Procedure: as §1, §2

HL-60 cells [5] = assay: Metabolic activity, resazurin staining, HL-60; settings: for Metabolic activity, mean percentage ± SE: 72 h, relative to control
Procedure: as §1, §2
(§3) Proliferation inhibition often leads to cell death. Therefore, the cytotoxic activity of the compounds was further evaluated using a modified 3-(4,5-dimethylthiazol-2-yl)-2,5-diphenyltetrazolium bromide (MTT) assay, the resazurin (Alamar Blue) assay. Metabolically active cells reduce the non-fluorescent dye resazurin to the fluorescent dye resorufin via mitochondrial reductase activity, which correlates with cell viability. In the first step the metabolic activity of the four isolated flavonoids was investigated, showing a dose-dependent reduction, but to a much lower extent than in the proliferation assays (Table A2). In fact, only 7,3′,4′-trimethoxymyricetin (2) inhibited the metabolic activity of all four cell lines by more than 50% at a concentration of 100 µM.

MOLM-13 cells [6] = assay: Metabolic activity, resazurin staining, MOLM-13; settings: for Metabolic activity, mean percentage ± SE: 72 h, relative to control
Procedure: [The source words this procedure for another cell line and reports this cell line under the same test.] as §1, §2, §3

AMO-1 cells [7] = assay: Metabolic activity, resazurin staining, AMO-1; settings: for Metabolic activity, mean percentage ± SE: 72 h, relative to control
Procedure: as §1, §2, §3

KMS-12-PE cells [8] = assay: Metabolic activity, resazurin staining, KMS-12-PE; settings: KMS-12 PE; for Metabolic activity, mean percentage ± SE: 72 h, relative to control
Procedure: as §1, §2, §3

SMILES | mean percentage of proliferation ± SE (HL-60 cells [1]; HL-60, 25 µM) | mean percentage of proliferation ± SE (HL-60 cells [1]; HL-60, 50 µM) | mean percentage of proliferation ± SE (HL-60 cells [1]; HL-60, 100 µM) | mean percentage of proliferation ± SE (MOLM-13 cells [2]; MOLM-13, 25 µM) | mean percentage of proliferation ± SE (MOLM-13 cells [2]; MOLM-13, 50 µM) | mean percentage of proliferation ± SE (MOLM-13 cells [2]; MOLM-13, 100 µM) | mean percentage of proliferation ± SE (AMO-1 cells [3]; AMO-1, 25 µM) | mean percentage of proliferation ± SE (AMO-1 cells [3]; AMO-1, 50 µM) | mean percentage of proliferation ± SE (AMO-1 cells [3]; AMO-1, 100 µM) | mean percentage of proliferation ± SE (KMS-12-PE cells [4]; 25 µM) | mean percentage of proliferation ± SE (KMS-12-PE cells [4]; 50 µM) | mean percentage of proliferation ± SE (KMS-12-PE cells [4]; 100 µM) | Metabolic activity, mean percentage ± SE (HL-60 cells [5]; HL-60, 25 µM) | Metabolic activity, mean percentage ± SE (HL-60 cells [5]; HL-60, 50 µM) | Metabolic activity, mean percentage ± SE (HL-60 cells [5]; HL-60, 100 µM) | Metabolic activity, mean percentage ± SE (MOLM-13 cells [6]; MOLM-13, 25 µM) | Metabolic activity, mean percentage ± SE (MOLM-13 cells [6]; MOLM-13, 50 µM) | Metabolic activity, mean percentage ± SE (MOLM-13 cells [6]; MOLM-13, 100 µM) | Metabolic activity, mean percentage ± SE (AMO-1 cells [7]; AMO-1, 25 µM) | Metabolic activity, mean percentage ± SE (AMO-1 cells [7]; AMO-1, 50 µM) | other results
COc1cc(O)c2c(=O)c(OC)c(-c3ccc(O)c(O)c3)oc2c1 [Compound 4, 3,7-di-O-methylquercetin] | 37.6 ± 7.7 % | 23.3 ± 6.5 % | 18.5 ± 4.0 % | 32.6 ± 5.5 % | 13.1 ± 2.7 % | 8.8 ± 3.1 % | 57.5 ± 9.2 % | 29.7 ± 4.1 % | 19.2 ± 5.1 % | 80.9 ± 3.2 % | 50.4 ± 5.2 % | 29.7 ± 6.0 % | 80.8 ± 5.9 % | 69.8 ± 5.1 % | 69.7 ± 5.5 % | 77.9 ± 4.3 % | 63.6 ± 6.4 % | 61.7 ± 6.9 % | 70.2 ± 10.8 % | 57.1 ± 10.5 % | mean percentage of proliferation ± SE (HL-60 cells [1]; HL-60, 10 µM): 45.9 ± 8.9 %; inhibition at 10 µM (HL-60 cells [1]; Homo sapiens, HL-60, 10 µM): > 50%; inhibition at 10 µM (MOLM-13 cells [2]; Homo sapiens, MOLM-13, 10 µM): > 50%; mean percentage of proliferation ± SE (MOLM-13 cells [2]; MOLM-13, 10 µM): 42.3 ± 11.2 %; mean percentage of proliferation ± SE (AMO-1 cells [3]; AMO-1, 10 µM): 73.3 ± 11.4 %; mean percentage of proliferation ± SE (KMS-12-PE cells [4]; 10 µM): 89.0 ± 5.2%; Metabolic activity, mean percentage ± SE (HL-60 cells [5]; HL-60, 10 µM): 86.1 ± 6.1 %; Metabolic activity, mean percentage ± SE (MOLM-13 cells [6]; MOLM-13, 10 µM): 81.1 ± 4.2 %; Metabolic activity, mean percentage ± SE (AMO-1 cells [7]; AMO-1, 10 µM): 91.5 ± 9.9%; inhibition of metabolic activity (AMO-1 cells [7]; AMO-1, 100 µM): induced antimetabolic activity; Metabolic activity, mean percentage ± SE (AMO-1 cells [7]; AMO-1, 100 µM): 46.9 ± 11.7 %; Metabolic activity, mean percentage ± SE (KMS-12-PE cells [8]; 10 µM): 110.1 ± 10.2%; Metabolic activity, mean percentage ± SE (KMS-12-PE cells [8]; 25 µM): 103.0 ± 9.9%; Metabolic activity, mean percentage ± SE (KMS-12-PE cells [8]; 50 µM): 92.4 ± 8.7%; Metabolic activity, mean percentage ± SE (KMS-12-PE cells [8]; 100 µM): 82.4 ± 7.7%
COc1ccc(-c2cc(=O)c3c(O)cc(O)cc3o2)cc1O [Compound 3, diosmetin] | 71.4 ± 1.5 % | 59.9 ± 3.6 % | 19.7 ± 3.7 % | 36.5 ± 2.9 % | 11.7 ± 1.6 % | 1.1 ± 0.4 % | 65.9 ± 9.4 % | 42.0 ± 5.0 % | 9.0 ± 0.8 % | 74.5 ± 6.9 % | 38.2 ± 4.1 % | 16.4 ± 2.4 % | 93.2 ± 3.1 % | 84.5 ± 2.2 % | 56.7 ± 3.5 % | 62.5 ± 10.1 % | 51.2 ± 7.2 % | 41.2 ± 5.0 % | 95.4 ± 2.4 % | 76.8 ± 3.7 % | inhibition of metabolic activity (MOLM-13 cells [6]; MOLM-13, 100 µM): induced antimetabolic activity; Metabolic activity, mean percentage ± SE (AMO-1 cells [7]; AMO-1, 100 µM): 54.5 ± 5.5 %; Metabolic activity, mean percentage ± SE (KMS-12-PE cells [8]; 25 µM): 93.7 ± 4.9%; Metabolic activity, mean percentage ± SE (KMS-12-PE cells [8]; 50 µM): 81.3 ± 3.2 %; Metabolic activity, mean percentage ± SE (KMS-12-PE cells [8]; 100 µM): 57.2 ± 4.7 %
COc1cc(O)c2c(=O)c(O)c(-c3cc(O)c(OC)c(OC)c3)oc2c1 [Compound 2, 7,3′,4′-trimetoxymyricetin] | 69.8 ± 2.5 % | 36.7 ± 2.5 % | 2.5 ± 0.5 % | 77.8 ± 9.6% | 35.4 ± 4.2 % | 3.8 ± 1.0 % | 69.2 ± 5.3 % | 27.0 ± 4.0 % | 4.8 ± 1.0 % | 64.5 ± 2.9 % | 16.1 ± 0.9 % | 2.6 ± 0.4 % | 93.2 ± 7.8% | 79.6 ± 7.0 % | 32.1 ± 2.8 % | 77.8 ± 2.1 % | 65.4 ± 3.6 % | 48.9 ± 5.5 % | 81.3 ± 6.3 % | 68.9 ± 4.1 % | inhibition at 100 µM (HL-60 cells [5]; Homo sapiens, HL-60, 100 µM): > 50%; inhibition at 100 µM (MOLM-13 cells [6]; Homo sapiens, MOLM-13, 100 µM): > 50%; Metabolic activity, mean percentage ± SE (AMO-1 cells [7]; AMO-1, 100 µM): 41.8 ± 6.4 %; inhibition at 100 µM (AMO-1 cells [7]; Homo sapiens, AMO1, AMO-1, 100 µM): > 50%; inhibition at 100 µM (KMS-12-PE cells [8]; Homo sapiens, 100 µM): > 50%; Metabolic activity, mean percentage ± SE (KMS-12-PE cells [8]; 25 µM): 87.9 ± 2.6 %; Metabolic activity, mean percentage ± SE (KMS-12-PE cells [8]; 50 µM): 62.7 ± 2.6 %; Metabolic activity, mean percentage ± SE (KMS-12-PE cells [8]; 100 µM): 44.5 ± 4.0 %
